How the values were obtained:
women with PPD = settings: zuranolone treatment; cited from earlier work
[1] = system: mice subjected to chronic unpredictable stress (CUS); assay: Chronic unpredictable stress (CUS) in mice, behavioral state (learned helplessness, social interaction, anhedonia); type: in vivo; settings: exogenous allopregnanolone treatment after 3 weeks CUS; FIGS. 3B-3D
Text: In each graph, from left to right, the first bar is control, second bar is mice following CUS, and the third bar is mice following CUS and with exogenous allopregnanolone treatment.
Decreased expression of 5α-reductase 1 and 2 is associated with chronic stress, a major risk factor for depression. […] Reduced endogenous neurosteroids impaired the affective state.

SMILES | women with PPD exhibiting a rapid antidepressant response (women with PPD) [%] | behavioral state of the mice following CUS (learned helplessness, social interaction, anhedonia) [1]
C[C@@]1(O)CC[C@H]2[C@H](CC[C@@H]3[C@@H]2CC[C@]2(C)[C@@H](C(=O)Cn4cc(C#N)cn4)CC[C@@H]32)C1 [zuranolone] | 57 | 
CC(=O)[C@H]1CC[C@H]2[C@@H]3CC[C@H]4C[C@H](O)CC[C@]4(C)[C@H]3CC[C@]12C [allopregnanolone] |  | restored the behavioral state
